Experimental data published in patent US10378058B2, “Diagnostic and therapeutic methods and compositions involving PTEN and breast cancer” (Board of Regents of The University of Texas System, priority 2003, dated 2019).
“Also recorded” adds a separate entry of the source.

Tests used:
PTEN [1] = experiment: PTEN expression after antisense transfection in vitro; assay type: cell-based, human; conditions: SKBr3 cells, 25 nM, vs mock or mismatched (MIS) oligonucleotides
Procedure: Antisense Delivery in vitro. Antisense oligonucleotides against PTEN (ISIS116847: 5′-[…]-3′) (SEQ ID NO:3) and control oligonucleotides (ISIS 116848: 5′-[…]-3′ (SEQ ID NO:4), with six base mismatches to ISIS 116847) have been described (Butler et al., 2002). Cells were plated in 100-mm dishes at 30% confluence and transfected with oligonucleotides (12.5 nM for BT474 and 25 nM for SKBr3 cells) twice using Oligofectamine (Life Technologies, Rockville, Md.) 24 and 72 h post-plating. Ninety-six hours post-plating, cells were re-plated for individual assays described in this report. PTEN expression was determined 120 h post-plating (FIG. 2A).
(§1) Preparation of Cell Lysates, Immunoprecipitation, and Western Blot Analysis. Cells at 70%-80% confluence were treated with each reagent indicated in the individual experiments. For PTEN phosphotyrosine immunoblots, ErbB2 IP, and Src IP, cells were treated with 30 mM pervanadate for 10 min as described (Lu et al., 2003). Unless noted, cells were washed with PBS and lysed in IP buffer with protease inhibitor cocktail (Sigma Chemical Co., St. Louis, Mo.). Immunoprecipitation and Western blot analysis were performed (Yu et al., 1998).

SKBr3 cells = experiment: Cell proliferation of SKBr3 cells (MTS assay); assay type: cell-based, human; conditions: PTEN AS alone without trastuzumab, vs MIS
Procedure: (§2) Cell viability assay. Cells were seeded at 1-5×10^3 cells/well in 96-well plates after oligonucleotide transfection. Viable cells were determined by CellTiter 96 AQueous Non-Radioactive Cell Proliferation Assay (Promega, Madison, Wis.).

PTEN [2] = experiment: PTEN expression in BT474 xenografts injected with oligonucleotides; assay type: in vivo, mice; conditions: intratumor injection 15 μg/injection twice a week for 1 week, ErbB2 expression remained the same
Procedure: Animal experiment. Female athymic nude mice (Harlan Sprague Dawley, Indianapolis, Ind.) were implanted with 0.72-mg 60-day-release 17β-estradiol pellets (Innovative Research, Sarasota, Fla.) and irradiated at 3.5 Gy prior to inoculation. BT474 cells (8×10^6) in 200 μl of PBS and Matrigel (BD Biosciences, Bedford, Mass.) mixture (1:1 ratio) were injected subcutaneously into a mouse mammary fat pad (mfp). When the mfp tumor volume reached >150 mm^3, the tumor was treated with PTEN antisense or control mismatched oligonucleotides (30 μg/week) in saline. […] Tumor diameters were serially measured with calipers and tumor volumes calculated: volume=width^2×length/2. Each treatment group contained 8-12 mice. Unpaired Student's t-test was used to assess statistical significance.

Src = molecular target: T1, Src (Homo sapiens, UniProt P12931); experiment: Src-Y416 phosphorylation in 435.eB cells; assay type: cell-based; conditions: vs solvent 10% DMSO
T1 construct: endogenous in cells; host or cells: 435.eB cells
Procedure: as §1

PTEN [3] = experiment: PTEN tyrosine phosphorylation in 435.eB cells; assay type: cell-based; conditions: vs solvent 10% DMSO
Procedure: as §1

BT474 cells = experiment: Cell viability assay of BT474 cells; assay type: cell-based, human; conditions: paclitaxel alone without trastuzumab
Procedure: as §2

T1 sequence (P12931 whole entry): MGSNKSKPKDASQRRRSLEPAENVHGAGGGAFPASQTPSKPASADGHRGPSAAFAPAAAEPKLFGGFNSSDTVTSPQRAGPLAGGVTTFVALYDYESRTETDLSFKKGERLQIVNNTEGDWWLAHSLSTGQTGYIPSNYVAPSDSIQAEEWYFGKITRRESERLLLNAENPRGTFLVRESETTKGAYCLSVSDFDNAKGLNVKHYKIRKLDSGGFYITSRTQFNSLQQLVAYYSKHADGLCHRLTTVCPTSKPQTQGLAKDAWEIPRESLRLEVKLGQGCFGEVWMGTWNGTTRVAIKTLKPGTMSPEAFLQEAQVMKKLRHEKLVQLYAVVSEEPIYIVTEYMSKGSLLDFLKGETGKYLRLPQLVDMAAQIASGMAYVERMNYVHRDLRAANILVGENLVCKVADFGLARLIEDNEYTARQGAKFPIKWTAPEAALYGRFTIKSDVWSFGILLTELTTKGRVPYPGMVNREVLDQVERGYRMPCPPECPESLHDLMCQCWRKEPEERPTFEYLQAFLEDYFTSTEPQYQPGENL

PTEN AS: Antisense oligonucleotides against PTEN, 5′-CTGCTAGCCTCTGGATTTGA-3′ (SEQ ID NO:3) (listed as DNA, chemistry not given here)
endogenous PTEN expression (PTEN [1]): inhibited endogenous PTEN expression; also recorded: reduced | cell proliferation (SKBr3 cells): no significant effect on cell proliferation | PTEN expression in tumor xenografts (PTEN [2]): effectively inhibited; also recorded: reduced

CC(C)(C)n1nc(-c2ccc(Cl)cc2)c2c(N)ncnc21 [PP2]
Src phosphorylation on Y416 (Src): effectively inhibited Src phosphorylation on Y416 | tyrosine phosphorylation of PTEN (PTEN [3]): dramatically reduced tyrosine phosphorylation of PTEN

CC(=O)O[C@H]1C(=O)[C@@]2(C)[C@H]([C@H](OC(=O)c3ccccc3)[C@]3(O)C[C@H](OC(=O)[C@H](O)[C@@H](NC(=O)c4ccccc4)c4ccccc4)C(C)=C1C3(C)C)[C@]1(OC(C)=O)CO[C@@H]1C[C@@H]2O [paclitaxel]
cell viability, PTEN AS-transfected vs MIS control-transfected cells (BT474 cells): no statistically significant difference in cell viability
